Reference: patent publication US20210047304A1, “Bromodomain Inhibitors” (AbbVie Inc., priority 2016, published 2021)

The compounds below were run against BRD4 (BDI_K57-E168) (Homo sapiens, UniProt O60885) (assay: TR-FRET bromodomain binding assay, BRD4 BDI).
Compound `Cc1cc(F)cc(C)c1Oc1ccc(C(C)(C)O)cc1-c1cn(C)c(=O)cc1O[C@H]1CC[C@H](NC(=O)CCO)CC1` [Example 49, N-[trans-4-({5-[2-(4-fluoro-2,6-dimethylphenoxy)-5-(2-hydroxypropan-2-yl)phenyl]-1-methyl-2-oxo-1,2-dihydropyridin-4-yl}oxy)cyclohexyl]-3-hydroxypropanamide] has a Ki of 2530 nM.
With `Cc1cc(F)cc(C)c1Oc1ccc(C(C)(C)O)cc1-c1cn(C)c(=O)cc1O[C@H]1CC[C@H](NC(=O)C2CC2)CC1` [Example 50, N-[trans-4-({5-[2-(4-fluoro-2,6-dimethylphenoxy)-5-(2-hydroxypropan-2-yl)phenyl]-1-methyl-2-oxo-1,2-dihydropyridin-4-yl}oxy)cyclohexyl]cyclopropanecarboxamide] the Ki was 2830 nM.
With `Cc1cc(F)cc(C)c1Oc1ccc(C(C)(C)O)cc1-c1cn(C)c(=O)cc1O[C@H]1CC[C@H](NC(=O)C2(C)CC2)CC1` [Example 51, N-[trans-4-({5-[2-(4-fluoro-2,6-dimethylphenoxy)-5-(2-hydroxypropan-2-yl)phenyl]-1-methyl-2-oxo-1,2-dihydropyridin-4-yl}oxy)cyclohexyl]-1-methylcyclopropane-1-carboxamide] the Ki was over 13000 nM.
With `Cc1cc(F)cc(C)c1Oc1ccc(C(C)(C)O)cc1-c1cn(C)c(=O)cc1O[C@H]1CC[C@H](N2CCCS2(=O)=O)CC1` [Example 52, 2-[trans-4-({5-[2-(4-fluoro-2,6-dimethylphenoxy)-5-(2-hydroxypropan-2-yl)phenyl]-1-methyl-2-oxo-1,2-dihydropyridin-4-yl}oxy)cyclohexyl]-1lambda^6,2-thiazolidine-1,1-dione] the Ki was 3480 nM.
Compound `COCC(=O)N[C@H]1CC[C@H](Oc2cc(=O)n(C)cc2-c2cc(C(C)(C)O)ccc2Oc2c(C)cc(F)cc2C)CC1` [Example 53, N-[trans-4-({5-[2-(4-fluoro-2,6-dimethylphenoxy)-5-(2-hydroxypropan-2-yl)phenyl]-1-methyl-2-oxo-1,2-dihydropyridin-4-yl}oxy)cyclohexyl]-2-methoxyacetamide] has a Ki of 1440 nM.
With `CC(=O)N(CCO)[C@H]1CC[C@H](Oc2cc(=O)n(C)cc2-c2cc(C(C)(C)O)ccc2Oc2c(C)cc(F)cc2C)CC1` [Example 54, N-[trans-4-({5-[2-(4-fluoro-2,6-dimethylphenoxy)-5-(2-hydroxypropan-2-yl)phenyl]-1-methyl-2-oxo-1,2-dihydropyridin-4-yl}oxy)cyclohexyl]-N-(2-hydroxyethyl)acetamide] the Ki was 2260 nM.
`CCOC(=O)CC(=O)N[C@H]1CC[C@H](Oc2cc(=O)n(C)cc2-c2cc(C(C)(C)O)ccc2Oc2c(C)cc(F)cc2C)CC1` [Example 55, ethyl 3-{[trans-4-({5-[2-(4-fluoro-2,6-dimethylphenoxy)-5-(2-hydroxypropan-2-yl)phenyl]-1-methyl-2-oxo-1,2-dihydropyridin-4-yl}oxy)cyclohexyl]amino}-3-oxopropanoate] showed a Ki of 1870 nM.
`CC(=O)C(=O)N[C@H]1CC[C@H](Oc2cc(=O)n(C)cc2-c2cc(C(C)(C)O)ccc2Oc2c(C)cc(F)cc2C)CC1` [Example 56, N-[trans-4-({5-[2-(4-fluoro-2,6-dimethylphenoxy)-5-(2-hydroxypropan-2-yl)phenyl]-1-methyl-2-oxo-1,2-dihydropyridin-4-yl}oxy)cyclohexyl]-2-oxopropanamide] gave a Ki of 2430 nM.
`Cc1cc(F)cc(C)c1Oc1ccc(C(C)(C)O)cc1-c1cn(C)c(=O)cc1O[C@H]1CC[C@H](NC(=O)C(C)(C)C)CC1` [Example 57, N-[trans-4-({5-[2-(4-fluoro-2,6-dimethylphenoxy)-5-(2-hydroxypropan-2-yl)phenyl]-1-methyl-2-oxo-1,2-dihydropyridin-4-yl}oxy)cyclohexyl]-2,2-dimethylpropanamide] showed a Ki of 1660 nM.
For `Cc1cc(F)cc(C)c1Oc1ccc(C(C)(C)O)cc1-c1cn(C)c(=O)cc1O[C@H]1CC[C@H](N(C)C(=O)C2(C)CC2)CC1` [Example 58, N-[trans-4-({5-[2-(4-fluoro-2,6-dimethylphenoxy)-5-(2-hydroxypropan-2-yl)phenyl]-1-methyl-2-oxo-1,2-dihydropyridin-4-yl}oxy)cyclohexyl]-N,1-dimethylcyclopropane-1-carboxamide], the Ki was 783 nM.
`Cc1cc(F)cc(C)c1Oc1ccc(C(C)(C)O)cc1-c1cn(C)c(=O)cc1O[C@H]1CC[C@H](N(C)C(=O)C(C)(C)C)CC1` [Example 59, N-[trans-4-({5-[2-(4-fluoro-2,6-dimethylphenoxy)-5-(2-hydroxypropan-2-yl)phenyl]-1-methyl-2-oxo-1,2-dihydropyridin-4-yl}oxy)cyclohexyl]-N,2,2-trimethylpropanamide] gave a Ki of 6550 nM.
Work on `Cc1cc(F)cc(C)c1Oc1ncc(C(C)(C)O)cc1-c1cn(C)c(=O)cc1O[C@H]1CC[C@H](N2CCCC2=O)CC1` [Example 60, 2′-(4-fluoro-2,6-dimethylphenoxy)-5′-(2-hydroxypropan-2-yl)-1-methyl-4-{[trans-4-(2-oxopyrrolidin-1-yl)cyclohexyl]oxy}[3,3′-bipyridin]-6(1H)-one] yielded a Ki of 4660 nM.
Compound `Cc1cc(F)cc(C)c1Oc1ccc(C(C)(C)O)cc1-c1cn(C)c(=O)cc1O[C@H]1CC[C@H](C(=O)O)CC1` [Example 61, trans-4-({5-[2-(4-fluoro-2,6-dimethylphenoxy)-5-(2-hydroxypropan-2-yl)phenyl]-1-methyl-2-oxo-1,2-dihydropyridin-4-yl}oxy)cyclohexane-1-carboxylic acid] has a Ki of 12200 nM.
For `Cc1cc(F)cc(C)c1Oc1ccc(C(C)(C)O)cc1-c1cn(C)c(=O)cc1O[C@H]1CC[C@H](C(=O)N2CCCC2)CC1` [Example 62, 5-[2-(4-fluoro-2,6-dimethylphenoxy)-5-(2-hydroxypropan-2-yl)phenyl]-1-methyl-4-{[trans-4-(pyrrolidine-1-carbonyl)cyclohexyl]oxy}pyridin-2(1H)-one], the Ki was 8370 nM.
Compound `CCNC(=O)[C@H]1CC[C@H](Oc2cc(=O)n(C)cc2-c2cc(C(C)(C)O)ccc2Oc2c(C)cc(F)cc2C)CC1` [Example 63, trans-N-ethyl-4-({5-[2-(4-fluoro-2,6-dimethylphenoxy)-5-(2-hydroxypropan-2-yl)phenyl]-1-methyl-2-oxo-1,2-dihydropyridin-4-yl}oxy)cyclohexane-1-carboxamide] has a Ki of 5960 nM.
Compound `COCCN(C(=O)C1(C)CC1)[C@H]1CC[C@H](Oc2cc(=O)n(C)cc2-c2cc(C(C)(C)O)ccc2Oc2c(C)cc(F)cc2C)CC1` [Example 64, N-[trans-4-({5-[2-(4-fluoro-2,6-dimethylphenoxy)-5-(2-hydroxypropan-2-yl)phenyl]-1-methyl-2-oxo-1,2-dihydropyridin-4-yl}oxy)cyclohexyl]-N-(2-methoxyethyl)-1-methylcyclopropane-1-carboxamide] has a Ki of 1950 nM.
For `COCCCN(C(=O)C1(C)CC1)[C@H]1CC[C@H](Oc2cc(=O)n(C)cc2-c2cc(C(C)(C)O)ccc2Oc2c(C)cc(F)cc2C)CC1` [Example 65, N-[trans-4-({5-[2-(4-fluoro-2,6-dimethylphenoxy)-5-(2-hydroxypropan-2-yl)phenyl]-1-methyl-2-oxo-1,2-dihydropyridin-4-yl}oxy)cyclohexyl]-N-(3-methoxypropyl)-1-methylcyclopropane-1-carboxamide], the Ki was 1860 nM.
